The values that follow are results of earlier work, collected in US9820991B2, “Pharmaceutical composition comprising brinzolamide” (SENTISS PHARMA PVT. LTD., priority 2013, dated 2017).

Structures are written as SMILES.

For this data set the following is noted: in tear fluid.

Take `CCN[C@H]1CN(CCCOC)S(=O)(=O)c2sc(S(N)(=O)=O)cc21` [brinzolamide, (R)-(+)-4-Ethylamino-2-(3-methoxypropyl)-3,4-dihydro-2H-thieno [3,2-e]-1,2-thiazine-6-sulfonamide-1,1-dioxide]: the solubility result is “around 0.08%”.
